Literature values in publication PMC8153205 (Journal of Inflammation Research, 2021).

System: rheumatoid arthritis
Settings: RA clinical trials

SMILES: NC(=O)c1cnc2[nH]ccc2c1N[C@@H]1[C@@H]2CC3C[C@H]1C[C@@](O)(C3)C2 [peficitinib]
- SUCRA for serious adverse events (safety): 0.66
